Among the data in paper PMC5820170 (Molecular cancer therapeutics, 2015) are IC50 values, retold here.

The experiment concerns the target Mammalian Ste20-like kinase 4 (MST4) (Homo sapiens, UniProt Q9P289). It counts as biochemical.

Chain of Mammalian Ste20-like kinase 4 (MST4) (Q9P289 whole entry): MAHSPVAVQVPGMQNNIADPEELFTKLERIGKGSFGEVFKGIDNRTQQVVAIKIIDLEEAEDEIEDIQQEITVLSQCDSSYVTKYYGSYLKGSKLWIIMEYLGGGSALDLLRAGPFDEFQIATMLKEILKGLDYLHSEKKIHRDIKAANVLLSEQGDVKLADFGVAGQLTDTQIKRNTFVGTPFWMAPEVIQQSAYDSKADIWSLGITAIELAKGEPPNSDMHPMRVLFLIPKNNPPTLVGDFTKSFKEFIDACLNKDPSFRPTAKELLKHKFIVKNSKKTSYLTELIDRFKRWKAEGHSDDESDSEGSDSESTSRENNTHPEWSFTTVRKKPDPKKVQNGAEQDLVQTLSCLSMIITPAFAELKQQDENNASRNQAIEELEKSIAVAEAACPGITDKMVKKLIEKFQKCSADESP

Consider `CCS(=O)(=O)Nc1ccc2c(c1)/C(=C(/Nc1ccc(CN3CCCCC3)cc1)c1ccccc1)C(=O)N2` [Hesperadin], for which the IC50 was found to be 6.18 ± 2.2 nM.

In general, IC50 refers to the concentration at which inhibition is half-maximal. A lower IC50 goes with inhibition by little substance.
